According to ChEMBL document CHEMBL1150399, “Evaluation of novel hyphodermin derivatives as glycogen phosphorylase a inhibitors” (Bioorg Med Chem, 2008):
Activity calls are given as the source filed them. The calls are words filed in the database; no cut-off is given here.

How the values were obtained:
[1] = target: T1, Glycogen phosphorylase, muscle form (Oryctolagus cuniculus) (UniProt P00489); assay: Inhibition of rabbit glycogen phosphorylase assessed as release of phosphate from glucose 1 phosphate at 3 mM
T1 sequence (whole entry): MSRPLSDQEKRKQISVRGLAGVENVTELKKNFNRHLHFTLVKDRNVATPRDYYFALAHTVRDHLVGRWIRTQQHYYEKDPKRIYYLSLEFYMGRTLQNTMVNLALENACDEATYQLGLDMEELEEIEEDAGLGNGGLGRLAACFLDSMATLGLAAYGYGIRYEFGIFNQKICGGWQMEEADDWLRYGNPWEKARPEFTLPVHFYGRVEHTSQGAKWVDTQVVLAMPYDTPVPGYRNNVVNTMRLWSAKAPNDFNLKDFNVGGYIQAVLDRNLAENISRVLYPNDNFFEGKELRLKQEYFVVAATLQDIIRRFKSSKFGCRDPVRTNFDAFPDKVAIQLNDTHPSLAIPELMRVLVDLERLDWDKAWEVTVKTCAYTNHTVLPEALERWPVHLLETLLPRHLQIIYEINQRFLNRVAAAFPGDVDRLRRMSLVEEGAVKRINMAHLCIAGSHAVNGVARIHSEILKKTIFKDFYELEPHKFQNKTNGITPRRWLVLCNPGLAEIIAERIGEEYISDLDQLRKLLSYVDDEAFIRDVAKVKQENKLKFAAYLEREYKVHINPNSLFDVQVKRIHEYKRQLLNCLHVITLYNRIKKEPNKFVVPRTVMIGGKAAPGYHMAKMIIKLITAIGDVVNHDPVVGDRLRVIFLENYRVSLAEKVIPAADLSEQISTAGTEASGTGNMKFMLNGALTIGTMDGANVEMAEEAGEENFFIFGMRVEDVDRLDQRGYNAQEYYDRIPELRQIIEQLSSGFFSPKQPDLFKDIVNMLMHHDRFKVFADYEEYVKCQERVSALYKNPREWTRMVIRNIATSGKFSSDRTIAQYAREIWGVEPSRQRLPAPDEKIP

[2] = target: T1, Glycogen phosphorylase, muscle form (Oryctolagus cuniculus); assay: Inhibition of rabbit muscle glycogen phosphorylase assessed as release of phosphate from glucose 1 phosphate at 0.222 to 22 mM
[3] = target: T2, Glycogen phosphorylase, muscle form (Oryctolagus cuniculus, UniProt P00489); assay: Inhibition of rabbit muscle glycogen phosphorylase assessed as release of phosphate from glucose 1 phosphate
T2 sequence (P00489 whole entry): T1 sequence (whole entry)

[4] = target: T1, Glycogen phosphorylase, muscle form (Oryctolagus cuniculus); assay: Inhibition of rabbit glycogen phosphorylase assessed as release of phosphate from glucose 1 phosphate at 22 mM
[5] = target: T1, Glycogen phosphorylase, muscle form (Oryctolagus cuniculus); assay: Inhibition of rabbit glycogen phosphorylase assessed as release of phosphate from glucose 1 phosphate at <=1.4 to 3 mM

An inhibition [1] of 15% was found for COC1OC(=O)c2ccc3c(c21)C(=O)C=CC3(C)C (stereo not drawn) in this work.

With O=C(O)c1ccc2c3c1C(=O)N(c1ccccc1)C3(O)CCC2 (stereo not drawn) the Activity [2] was “inactive”.

With COC(=O)c1ccc2c(c1C(=O)OC)C(=O)CCC2(C)C the Activity [2] was “inactive”.

In the case of O=C(O)c1ccc2c(c1C(=O)N1CCOCC1)C(=O)CCC2, the Activity [2] is reported as “inactive”.

With CCN(CC)C(=O)c1c(C(=O)O)ccc2c1C(=O)CCC2 the Activity [2] was “inactive”.

An IC50 [3] of 1100 µM and an inhibition [4] of 46% were found for O=C(O)c1ccc2c3c1C(=O)N(Cc1ccccc1)C3=CCC2 in this work.

An IC50 [3] of 11700 µM and an inhibition [4] of 89% were found for O=C(O)c1ccc2c(c1C(=O)NCc1ccccc1)C(=O)CCC2 in this work.

With O=C(O)c1ccc2c(c1C(=O)O)C(=O)CCC2 the Activity [2] was “inactive”.

In the case of O=C(O)c1ccc2c(c1C(=O)Nc1ccccc1)C(=O)CCC2, the Activity [2] is reported as “inactive”.

An IC50 [3] of 800 µM and an inhibition [4] of 46% were found for O=C(O)c1ccc2c3c1C(=O)N(c1ccccc1)C3=CCC2 in this work.

In the case of CC1(C)C=CC(=O)c2c1ccc1c2C(O)OC1=O (stereo not drawn), the Activity [2] is reported as “inactive”.

With CC1(C)c2ccc3c(c2C(=O)[C@@H]2O[C@@H]21)[C@H](O)OC3=O (racemic) the Activity [2] was “inactive” and the Activity [5] was “inactive”.

With COC(=O)c1ccc2c(c1C(=O)OC)C(=O)[C@@H]1O[C@@H]1C2(C)C (racemic) the Activity [2] was “inactive”.

O=C1OC(=O)c2c1ccc1c2C(=O)CCC1 was tested, and the Activity [2] was “inactive”.

In the case of CO[C@@H]1OC(=O)c2ccc3c(c21)C(=O)[C@@H]1O[C@@H]1C3(C)C (racemic), the Activity [2] is reported as “inactive” and the Activity [5] is reported as “inactive”.

In the case of COC(=O)c1ccc2c(c1C(=O)OC)C(=O)C=CC2(C)C, the Activity [2] is reported as “inactive”.

With CC1(C)CCC(=O)c2c1ccc(C(=O)O)c2C(=O)O the Activity [2] was “inactive”.

An IC50 [3] of 1200 µM and an inhibition [4] of 65% were found for O=C(O)c1ccc2c3c1C(=O)N(Cc1ccccc1)C3(O)CCC2 (stereo not drawn) in this work.

COC(=O)c1ccc2c(c1C(=O)OC)C(=O)C(Br)CC2(C)C (stereo not drawn) was tested, and the Activity [2] was “inactive”.

In the case of COC(=O)c1c(C(=O)O)ccc2c1C(=O)CCC2, the Activity [2] is reported as “inactive”.

COC(=O)c1ccc2c(c1C(=O)OC)C(=O)CCC2 was tested, and the Activity [2] was “inactive”.

An IC50 [3] of 1300 µM and an inhibition [4] of 55% were found for CCCCCSC(=O)c1c(C(=O)O)ccc2c1C(=O)CCC2 in this work.

CC(C)OC(=O)c1c(C(=O)O)ccc2c1C(=O)CCC2 was tested, and the Activity [2] was “inactive”.

CC1(C)CCC(=O)c2c1ccc1c2C(O)OC1=O (stereo not drawn) was tested, and the Activity [2] was “inactive” and the Activity [5] was “inactive”.

CC1(C)C=CC(=O)c2c1ccc(C(=O)O)c2C(=O)O was tested, and the Activity [2] was “inactive”.
